Assay results taken from patent US9464326B2, “Total and phosphorylated IL-1 receptor-associated kinase-1 and IL-1 receptor-associated kinase-4 as a biomarker for cancer progression and chemotherapy resistance” (University of Maryland, Baltimore, priority 2012, dated 2016).

Tested on: CCRF-CEM cells
Assay: Cell number and apoptosis assays
Assay type: cell-based, human
Details: IRAK-1,-4 inhibitor 0-20 μM plus titrated drug, apoptosis by 7AAD at 48 hours, FIG. 23
Procedure: TLR ligands were diluted 2-fold. Cell lines (25-40×10^3/well) were cultured for 54 hours, whereas fresh patient-derived T-ALL cells (200×10^3/well) were cultured for 30 hours prior to adding [^3H]-thymidine for 18 hours. After this time point, cells were harvested with a Packard Filter-Mate-96 cell harvester (Perkin Elmer, Waltham, Mass., USA) and counted on Packard Top Count-NXT (Perkin Elmer, Waltham, Mass., USA). Results were expressed as average counts per minute (cpm). In some experiments CCRF-CEM cells were pre-treated with TLR1-TLR2 ligand (Pam3CysK4; 2.5 ug/ml) for 48 hrs, washed, and then cultured in the presence of varying concentrations of FBS. Forty-eight hours later, proliferation (±SD) was determined by ^3H-thymidine incorporation. Alternatively, apoptosis was measured by flow cytometry after staining cells with Annexin-V (BD Pharmingen, San Diego, Calif., USA) and propidium iodide (Sigma). Cell number was counted under microscopy by staining cells with trypan blue.
CCRF-CEM cells were treated with IRAK-1,-4 inhibitor for 24, 48, 72, and 96 hours.
The T-ALL cell line CCRF-CEM was cultured in the presence of 0, 1.2, 5, 10, and 20 μM IRAK-1,-4 inhibitor. (FIG. 23). To each concentration of IRAK-1,-4 inhibitor titrating doses of ABT-737 (1000→15 nM) vincristine, VS (10→0.1 nM), and paclitaxol, PAC (100→1.5 nM). […] Apoptosis was measure 48 hours later by staining cells with 7AAD and analyzed by flow cytometry.

| Structure (SMILES) | synergy with IRAK-1,-4 inhibitor |
| --- | --- |
| CN(C)CC[C@H](CSc1ccccc1)Nc1ccc(S(=O)(=O)NC(=O)c2ccc(N3CCN(Cc4ccccc4-c4ccc(Cl)cc4)CC3)cc2)cc1[N+](=O)[O-] [ABT-737] | synergy |
| CC(=O)O[C@H]1C(=O)[C@@]2(C)[C@H]([C@H](OC(=O)c3ccccc3)[C@]3(O)C[C@H](OC(=O)[C@H](O)[C@@H](NC(=O)c4ccccc4)c4ccccc4)C(C)=C1C3(C)C)[C@]1(OC(C)=O)CO[C@@H]1C[C@@H]2O [paclitaxel] | synergy |
